Molecule `COc1ccsc1NC(=O)Nc1cc([N+](=O)[O-])ccc1O` has a melting point of 173 °C. `Cc1cc(Oc2ccc(C#CC(C)N(O)C(N)=O)o2)ccc1F` (configuration not stated) showed a melting point of 131 to 132 °C. In the case of `O=C(O)Cc1cc(C2CC2)ccc1Nc1ccc(-c2ccc(F)cc2)cc1F`, the melting point is reported as 182 to 183 °C. With `CC1CN(c2ccc(F)cc2)N=C1NC=O` (configuration not stated) the melting point was 166 to 168 °C. For `CC(=O)Nc1ccc(C(O)CO)cn1` (configuration not stated), the melting point was 184 to 185 °C. Molecule `O=C(NCc1cc(Br)cc2[nH]c(=O)c(=O)[nH]c12)c1ccccn1` has a melting point greater than 270 °C. Molecule `COc1cc2c(cc1OC)C(C=Cc1ccccc1)=NN(C(C)=O)C(C)C2` (configuration not stated) has a melting point of 118 to 120 °C. `FCCn1cc(-c2ccc3nnn(Cc4ccc5ncccc5c4)c3n2)cn1` showed a melting point of 168 to 170 °C. Molecule `CCOC(=O)c1cc2cccc(N(C)S(=O)(=O)c3cccs3)c2[nH]1` has a melting point of 164 to 165 °C. `NC(=S)/C=C1\CCc2ccc(F)cc21` gave a melting point of 178 to 179 °C. `CC(C)(C)N1CN(C(C)(C)C)C(N)=C2C=NN=C21` showed a melting point of 158 to 161 °C. `COC(=O)CC(=O)c1ccc(-c2ccccc2)cc1` gave a melting point of 82 °C. Molecule `CCCOC(=O)c1c(CN2CCCCC2)nc2cc(OC)c(OC)cc2c1-c1ccc(OC)c(OC)c1` has a melting point of 129 to 131 °C. With `CCOC(=O)C(=Cc1cccn2c([N+](=O)[O-])c(C)nc12)N=[N+]=[N-]` the melting point was 196 to 198 °C. Work on `COc1ccc(S(=O)(=O)N2C(=O)C(c3ccccc3OC)(N3CCc4ccccc4[C@H]3C(=O)N(C)C)c3cc(Cl)ccc32)c(OC)c1` (some centres not stated) yielded a melting point of 263 °C. Molecule `Cc1cc(O)c(Oc2ccccc2C#N)cc1-n1cccc1` has a melting point of 158 to 160 °C. Work on `O=C(O)CCCNC(=O)S[C@@H]1CC(=O)N(Cc2ccc(Oc3ccc(F)cc3)nc2)C1` yielded a melting point of 131 to 132 °C. `COc1cc(C=CC(=O)OC2C(O)C3CC(OC(=O)c4cc(OC)c(OC)c(OC)c4)CC2[N+]3(C)[O-])cc(OC)c1OC` (configuration not stated) gave a melting point of 118 to 121 °C. Work on `CC(=O)c1cc(-c2ccccc2)c(=O)n2c1-c1ccsc1CC2` yielded a melting point of 181 to 182 °C. For `COc1ccc2c3c1OC1C(=O)C=CC4C(C2)N(C)CCC314` (configuration not stated), the melting point was 177 to 180 °C. Work on `Oc1ccc(SCCCN2CCOCC2)c(O)c1` yielded a melting point of 99 °C. Work on `COc1cc(C(=O)O)cc2ccc3ccccc3c(=O)c12` yielded a melting point of 252 to 253 °C. `CCOc1cc2c(Nc3cc(OC)c(Cl)cc3Cl)c(C#N)cnc2cc1N` showed a melting point of 230 to 233 °C. For `O=C(O)c1cn(-c2ccc(F)cc2)c(-c2ccc(Cl)cc2)cc1=O`, the melting point was 199 to 204 °C. `O=C(O)c1c2c(nc3ccc(F)cc13)-c1ccc(-c3ccccc3F)cc1CCCC2` showed a melting point greater than 300 °C. `CC(=O)c1cc2cccc(OC3SCC(O)C(O)C3O)c2o1` (configuration not stated) showed a melting point of 116 to 120 °C. Molecule `COc1ccc(Cl)cc1C(=O)NCCc1ccc(C=C(C)C(=O)O)cc1` has a melting point of 188 to 191 °C. Work on `OCCc1ccc(N2CCOCC2)cc1` yielded a melting point of 57 °C. In the case of `CCCCCCC(C)(C)c1ccc(C2(O)CCCNC2)c(O)c1` (configuration not stated), the melting point is reported as 147 °C. `CC(=O)NCCNc1nc(-c2ccc(=O)n(C(C)C)n2)c(-c2ccccc2)nc1N` gave a melting point of 147 to 149 °C. `Cn1c(C(F)(F)F)cc(=O)n(-c2cc(OCc3cccc(F)c3)c(Cl)cc2F)c1=O` gave a melting point of 135 to 137 °C. Work on `Clc1ccc(C=NOCC2CO2)cc1` (configuration not stated) yielded a melting point of 69 to 70 °C. With `CNCc1nc(CSCCNC(=C[N+](=O)[O-])NC)cs1` the melting point was 105 to 107 °C. For `CC(=O)OC1C(N2CCCC2)CC2C3CCC4CC(O)C(N5CCOCC5)CC4(C)C3CCC21C` (configuration not stated), the melting point was 149 to 153 °C. Molecule `COC(=O)[C@H]1CC[C@H](N2CCN(c3ccc(C4CCN(C(=O)C(F)(F)F)CC4)cc3)C2=O)CC1` has a melting point of 183 to 185 °C. Work on `CC1CCC2(C)C(=CCC3C4CCC(=O)C4(C)CCC32)C1` (configuration not stated) yielded a melting point of 148 to 150 °C. For `CNC(C)=CC(=O)CS(=O)(=O)NC(C)C`, the melting point was 83 to 85 °C. Work on `O=C(Nc1cccc(Nc2nc(-c3cccnc3)cs2)c1)c1ccc(/C=C/ONO)s1` yielded a melting point of 206 °C. In the case of `C#CCNC1CCc2ccccc21` (configuration not stated), the melting point is reported as 39 to 41 °C. `COc1cccc(-c2nc3n(n2)CCc2cc(OC)c(OC)cc2-3)c1` gave a melting point of 132 to 133 °C. Molecule `CC(C)(Oc1ccc(C2CCOCC2)cc1)C(=O)O` has a melting point of 112 °C. Work on `Cn1cncc1C(c1ccc(Cl)cc1)c1ccc(N)c(C(=O)c2cccc(Cl)c2)c1` (configuration not stated) yielded a melting point of 179 °C. In the case of `CCCCNS(=O)(=O)NC(=O)OCc1ccc(OCCOC)cc1Oc1ncc(C(F)(F)F)cc1Cl`, the melting point is reported as 164 to 165 °C. For `CN(C)CCn1c(-c2cccc(C(F)(F)F)c2)cc2c1CCSC2`, the melting point was 88.5 to 90 °C. In the case of `COc1ccc(-c2cnc3[nH]c4ccccc4c3c2)cc1`, the melting point is reported as greater than 220 °C. For `COc1cc(C(C)(C)O)c(O)c2c1C(C)(C)CCC2(C)C`, the melting point was 140 °C. Molecule `CCOC(=O)/C=C/c1cc(OC)c(OC)c(OC)c1C#N` has a melting point of 150 to 152 °C. `CCCOc1ccc(S(=O)(=O)NCCN(C)C)cc1-c1nc2cc3nc[nH]c3cc2c(=O)[nH]1` showed a melting point of 212 to 214 °C. With `Cc1ccc(S(=O)(=O)NCCOCCO)cc1` the melting point was 35 to 38 °C. For `CCC1(COc2ccc(C=CC(=O)O)cc2)COC1`, the melting point was 128 °C. For `COc1cccc2c(=O)c3ccc(Cl)cc3oc12`, the melting point was 201 to 202 °C. `C=CCON=C(CCC)C1=C(O)CC(c2cc(C)cs2)CC1=O` (configuration not stated) gave a melting point of 72 to 74 °C. With `O=C(NCCCC(CCCNC(=O)c1ccccc1)OC(F)(F)F)c1ccccc1` the melting point was 115 to 118 °C. With `c1ccc2c(c1)N[C@H]1CCNCC[C@@H]21` (relative stereo) the melting point was 102 to 114 °C. `COC(=O)c1ccc(CCCOCCCCCNCC(O)c2cc(Cl)c(N)c(Cl)c2)o1` (configuration not stated) gave a melting point of 58 to 59 °C. With `CCCCCC(=O)NN` the melting point was 72.5 to 73.9 °C. `CCCOc1ccccc1-c1ncc(C(=O)N(C)C)c(=O)[nH]1` gave a melting point of 104 to 105 °C. For `CC(C)NC(=O)c1ccc(N2CCC(N3C(=O)OCc4ccccc43)CC2)c(C#N)c1`, the melting point was 200 °C. For `O=C(NC1CCN(CCCc2ccc(F)cc2)C1)C12CC3CC(CC(C3)C1)C2` (configuration not stated), the melting point was 114 to 115 °C. `CC(O)CCCCCCCc1ccc(O)c(O)c1` (configuration not stated) showed a melting point of 58 to 61 °C. `CC(=S)N[C@@H]1c2cc(C#N)ccc2OC(C)(C)[C@H]1O` (relative stereo) showed a melting point of 176 to 180 °C. For `COC(=O)CN(C(=O)CSc1nc2c(F)c(F)cc(F)c2s1)c1ccccc1`, the melting point was 145 to 147 °C. `Cc1cccc(COc2cccc(OCc3nc(-c4ccccc4)oc3C)c2)c1C(=O)O` gave a melting point of 144 to 145 °C. In the case of `CCOCCn1c(C(=O)C2CCN(CCC3(c4ccccc4)CCN(C(=O)c4cc(OC)c(OC)c(OC)c4)C3)CC2)nc2ccccc21` (configuration not stated), the melting point is reported as 65 to 70 °C. Molecule `CC1=NCC2CNC(c3ccccc3F)c3cc(Cl)ccc3N12` (configuration not stated) has a melting point of 108 to 110 °C. `CCOc1ccc2ccccc2c1C(=O)NC(Cc1ccc(C(F)(F)F)cc1)C(=O)c1ccc(F)cc1` (configuration not stated) showed a melting point of 188 to 189 °C. Work on `Nc1cc2c3c(cccc3c1N1CCCC1)C(=O)N(O)C2=O` yielded a melting point of 253 to 256 °C. Molecule `COc1ccc(CCN(C)CCCOc2ccc(NC(=O)c3cccc4c(=O)c5ccccc5[nH]c34)cc2)cc1` has a melting point of 160 °C. With `CC(C(N)=O)C1CC(c2ccc(N3CCSCC3)c(F)c2)=NO1` (configuration not stated) the melting point was 188 to 189 °C. With `CCOC(=O)Cn1cccc(NS(=O)(=O)Cc2ccccc2)c1=O` the melting point was 48 to 49 °C. For `CC(=O)N1C(C(=O)c2cn(C(=O)OC(C)(C)C)c3ccccc23)CSC1c1cccnc1` (configuration not stated), the melting point was 141 to 143 °C. Molecule `CCC(=O)Oc1cc(OC)cc(OC)c1C(=O)C=Cc1ccc(SC)cc1` has a melting point of 108 °C.
